BigSolDB 2.1

C[C@H]1O[C@@H](n2cc(F)c(=O)[nH]c2=O)[C@H](O)[C@@H]1O
solubility (mole fraction)
Settings	in 2-ethylhexanol	in methanol
278.15 K	1.43e-05	0.00296
283.15 K	2.23e-05	0.00334
288.15 K	3.13e-05	0.00414
293.15 K	4.66e-05	0.00466
298.15 K	6.85e-05	0.00561
303.15 K	9.63e-05	0.00653
308.15 K	0.000139	0.00757
313.15 K	0.000182	0.00849
318.15 K	0.000252	0.0101
323.15 K	0.000373	0.0113
328.15 K	0.000496	0.0133
